Results as given in PubChem BioAssay AID1845196 (Molecular Pharmacology Branch, DTP, NCI, 2023).

System: 292921-168-R tumor spheroid viability
Assay: Anticancer human tumor 292921-168-R patient-derived pancreatic carcinoma cell line growth inhibition
Details: spheroids with HUVEC and MSC; for IC50: curve of first compound; for viability, T/C: stronger effect = lower value
In short: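 Complex spheroids of malignant cells with endothelial cells and mesenchymal stem cells; agents alone or combined, from near clinical Cmax (or 10 microM if unknown) down in half-log steps, 0.25% DMSO final.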

[1] = second compound 30 pM, first compound 0.0949 µM
[2] = second compound 30 pM, first compound 0.3 µM
[3] = second compound 30 pM, first compound 0.949 µM
[4] = second compound 30 pM, first compound 3 µM
[5] = second compound 94.9 pM, first compound 0.0949 µM
[6] = second compound 94.9 pM, first compound 0.3 µM
[7] = second compound 94.9 pM, first compound 0.949 µM
[8] = second compound 94.9 pM, first compound 3 µM
[9] = second compound 0.0003 µM, first compound 0.0949 µM
[10] = second compound 0.0003 µM, first compound 0.3 µM
[11] = second compound 0.0003 µM, first compound 0.949 µM
[12] = second compound 0.0003 µM, first compound 3 µM
[13] = second compound 0.000949 µM, first compound 0.0949 µM
[14] = second compound 0.000949 µM, first compound 0.3 µM
[15] = second compound 0.000949 µM, first compound 0.949 µM
[16] = second compound 0.000949 µM, first compound 3 µM
[17] = second compound 0.003 µM, first compound 0.0949 µM
[18] = second compound 0.003 µM, first compound 0.3 µM
[19] = second compound 0.003 µM, first compound 0.949 µM
[20] = second compound 0.003 µM, first compound 3 µM
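Note: spheroids exposed to compounds for 7 days.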

## Cn1ncnc1[C@H]1c2n[nH]c(=O)c3cc(F)cc(c23)N[C@@H]1c1ccc(F)cc1 + COc1cc2c(cc1O)CCNC21CSC2c3c(OC(C)=O)c(C)c4c(c3C(COC1=O)N1C(O)C3Cc5cc(C)c(OC)c(O)c5C(C21)N3C)OCO4
Second compound 30 pM
  IC50: 646 nM
Second compound 94.9 pM
  IC50: 233 nM
Second compound 0.0003 µM
  IC50: < 9.49 nM
Second compound 0.000949 µM
  IC50: < 9.49 nM
Second compound 0.003 µM
  IC50: < 9.49 nM
Second compound 30 pM, first compound 0.00949 µM
  viability, T/C: 103%
Second compound 30 pM, first compound 0.03 µM
  viability, T/C: 86.9%
[1]
  viability, T/C: 76.5%
[2]
  viability, T/C: 70.5%
[3]
  viability, T/C: 41.4%
[4]
  viability, T/C: 11.9%
Second compound 94.9 pM, first compound 0.00949 µM
  viability, T/C: 85.1%
Second compound 94.9 pM, first compound 0.03 µM
  viability, T/C: 69.8%
[5]
  viability, T/C: 65.1%
[6]
  viability, T/C: 47.5%
[7]
  viability, T/C: 26.4%
[8]
  viability, T/C: 9.68%
Second compound 0.0003 µM, first compound 0.00949 µM
  viability, T/C: 26.6%
Second compound 0.0003 µM, first compound 0.03 µM
  viability, T/C: 29.4%
[9]
  viability, T/C: 24.2%
[10]
  viability, T/C: 17.1%
[11]
  viability, T/C: 14.6%
[12]
  viability, T/C: 7%
Second compound 0.000949 µM, first compound 0.00949 µM
  viability, T/C: 4.23%
Second compound 0.000949 µM, first compound 0.03 µM
  viability, T/C: 4.2%
[13]
  viability, T/C: 3.68%
[14]
  viability, T/C: 2.89%
[15]
  viability, T/C: 1.55%
[16]
  viability, T/C: 0.27%
Second compound 0.003 µM, first compound 0.00949 µM
  viability, T/C: 0.19%
Second compound 0.003 µM, first compound 0.03 µM
  viability, T/C: 0.19%
[17]
  viability, T/C: 0.17%
[18]
  viability, T/C: 0.22%
[19]
  viability, T/C: 0.18%
[20]
  viability, T/C: 0.42%

## O=C(c1cc(Cc2n[nH]c(=O)c3ccccc23)ccc1F)N1CCN(C(=O)C2CC2)CC1 + COc1cc2c(cc1O)CCNC21CSC2c3c(OC(C)=O)c(C)c4c(c3C(COC1=O)N1C(O)C3Cc5cc(C)c(OC)c(O)c5C(C21)N3C)OCO4
Second compound 30 pM
  IC50: 8260 nM
Second compound 94.9 pM
  IC50: 7070 nM
Second compound 0.0003 µM
  IC50: < 94.9 nM
Second compound 0.000949 µM
  IC50: < 94.9 nM
Second compound 0.003 µM
  IC50: < 94.9 nM
[1]
  viability, T/C: 99.4%
[2]
  viability, T/C: 103%
[3]
  viability, T/C: 96.6%
[4]
  viability, T/C: 91.9%
Second compound 30 pM, first compound 9.49 µM
  viability, T/C: 44.2%
Second compound 30 pM, first compound 30 µM
  viability, T/C: 21.8%
[5]
  viability, T/C: 94.8%
[6]
  viability, T/C: 94%
[7]
  viability, T/C: 88%
[8]
  viability, T/C: 82.2%
Second compound 94.9 pM, first compound 9.49 µM
  viability, T/C: 38.9%
Second compound 94.9 pM, first compound 30 µM
  viability, T/C: 22.4%
[9]
  viability, T/C: 48%
[10]
  viability, T/C: 41.3%
[11]
  viability, T/C: 38.6%
[12]
  viability, T/C: 34.3%
Second compound 0.0003 µM, first compound 9.49 µM
  viability, T/C: 10.7%
Second compound 0.0003 µM, first compound 30 µM
  viability, T/C: 13.2%
[13]
  viability, T/C: 3.75%
[14]
  viability, T/C: 4.31%
[15]
  viability, T/C: 3.14%
[16]
  viability, T/C: 3.26%
Second compound 0.000949 µM, first compound 9.49 µM
  viability, T/C: 1.19%
Second compound 0.000949 µM, first compound 30 µM
  viability, T/C: 0.39%
[17]
  viability, T/C: 0.15%
[18]
  viability, T/C: 0.13%
[19]
  viability, T/C: 0.13%
[20]
  viability, T/C: 0.23%
Second compound 0.003 µM, first compound 9.49 µM
  viability, T/C: 0.41%
Second compound 0.003 µM, first compound 30 µM
  viability, T/C: 1.31%
